{"source": "patent US20230271938A1", "about": "“BENZIMIDAZOLES FOR USE IN THE TREATMENT OF CANCER AND INFLAMMATORY DISEASES” (Capella Therapeutics, Inc., priority 2015, published 2023)", "key": {"[1]": {"system": "HCC827 human NSCLC adenocarcinoma cells (mutant ERBB1, deletion of E746-A759 in exon 19)", "experiment": "Cell proliferation assay, HCC827", "assay_type": "cell-based", "experimental": "(§1) The biological activity of a test compound was determined using cell proliferation assays. The activity against wild-type ERBB 1 was determined using A431 human epidermoid carcinoma cells (ATCC) and human epidermal keratinocytes, neonatal, or HEKn cells (ATCC).\n(§2) A431 cells were grown in DMEM (Invitrogen) supplemented with 10% FBS (Lonza), 1% penicillin-streptomycin, and 2 mM glutamine (Invitrogen). HEKn cells were grown in EPILIFE® (Invitrogen) supplemented with HKGS (Invitrogen). HCC827 and H1975 were cultured in RPMI1640 supplemented with 10% FBS (Lonza), 1% penicillin-streptomycin, and 2 mM glutamine (Invitrogen). Cells were maintained and propagated at 37° C. and 5% CO2 in a humidified cell culture incubator. Aliquots of cells from early passages were preserved for liquid nitrogen storage. Frozen vials of cells were thawed at 37° C. water bath. Cells were spun to remove freezing medium. The newly revived frozen cells were adapted in culture for 10 days before used for compound testing. Cells used in the assay were less than 20 subculture passages or 3 months in culture.\n(§3) The test compounds were dissolved in dimethylsulfoxide (DMSO) and stored at -20° C. before testing. […] The cells were placed in a culture incubator overnight. Next day, test compounds in DMSO were added to the cells and placed back in the culture incubator for 72 hrs. In the meantime, the cell numbers at time zero of the compound treatment (T0) was measured by ENERCOUNT® (Codex BioSolutions). At the end of the compound treatment, the cell numbers were again measured by EnerCount as T72 values. The untreated controls (Ctrl) were cell numbers recorded from the 0.1% DMSO treatment. The percent growth inhibition by the test compound was calculated by the formula: (1- (T72-T0)/(Ctrl-T0)) x 100.\n(§4) The results are summarized in Tables 1 and 2, wherein A represents a value no greater than 500 nM, B represents a value greater than 500 nM but no greater than 1 µM, C represents a value greater than 1 µM but no greater than 5 µM, and D represents a value greater than 5 µM; and wherein A′ represents a ratio of greater than 10, B′ represents a ratio of no greater than 10 but no less than 5, C′ represents a ratio of no greater than 5 but no less than 2, and D′ represents a ratio of no greater than 2."}, "[2]": {"system": "human epidermal keratinocytes, neonatal, or HEKn cells (wild-type ERBB1)", "experiment": "Cell proliferation assay, HEKn", "assay_type": "cell-based", "settings": "Keratinocyte, 72 hrs", "experimental": "as §1, §2, §3, §4"}, "BMX": {"molecular_target": "T1, BMX (Homo sapiens, UniProt P51813)", "T1 sequence (P51813 1-675)": "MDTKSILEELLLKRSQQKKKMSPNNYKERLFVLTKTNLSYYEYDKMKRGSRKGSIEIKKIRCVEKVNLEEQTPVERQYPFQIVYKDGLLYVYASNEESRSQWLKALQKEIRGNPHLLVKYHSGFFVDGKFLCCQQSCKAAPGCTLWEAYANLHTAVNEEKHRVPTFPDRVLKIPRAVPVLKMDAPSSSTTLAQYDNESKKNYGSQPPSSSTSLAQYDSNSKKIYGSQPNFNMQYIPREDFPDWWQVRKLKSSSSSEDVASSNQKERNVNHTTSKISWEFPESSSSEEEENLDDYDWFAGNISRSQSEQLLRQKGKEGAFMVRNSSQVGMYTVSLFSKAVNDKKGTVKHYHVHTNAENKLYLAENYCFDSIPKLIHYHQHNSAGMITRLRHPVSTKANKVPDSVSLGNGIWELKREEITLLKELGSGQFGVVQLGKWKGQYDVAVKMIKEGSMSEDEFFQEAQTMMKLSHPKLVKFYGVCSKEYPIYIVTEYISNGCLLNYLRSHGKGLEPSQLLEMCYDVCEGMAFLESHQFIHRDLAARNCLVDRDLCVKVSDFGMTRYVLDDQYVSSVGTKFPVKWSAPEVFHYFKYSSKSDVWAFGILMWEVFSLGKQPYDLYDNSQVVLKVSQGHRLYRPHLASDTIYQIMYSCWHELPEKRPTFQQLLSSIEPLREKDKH", "experiment": "Inhibition of BMX kinase", "assay_type": "biochemical", "settings": "1% DMSO", "text": "(§5) The Z′-LYTE® biochemical assay is a fluorescence-based, coupled-enzyme assay based on the differential sensitivity of phosphorylated and non-phosphorylated peptides to proteolytic cleavage. A peptide substrate for a kinase is labeled with two fluorophores, one at each end, to form a FRET pair.\n(§6) In the primary reaction, the kinase transfers the gamma-phosphate of ATP to a single tyrosine, serine, or threonine residue in the synthetic FRET-peptide substrate. In the secondary reaction, a site-specific protease recognizes and cleaves non-phosphorylated FRET-peptides. Cleavage disrupts FRET between the donor and acceptor fluorophores on the FRET-peptide, whereas uncleaved, phosphorylated FRET-peptides maintain FRET. An inhibitory activity of a compound is thus determined from its effect on the cleavage of the synthetic FRET-peptide substrate.\n(§7) Inhibition of BMX, BTK, ITK, and TXK kinases by a test compound is determined in 50 mM HEPES, pH 7.5, 0.01% BRIJ-35, 10 mM MgCl2, and 1 mM EGTA in the presence of 1% DMSO by volume.\n(§8) Inhibition of BMX, BTK, PIK3C-D, ITK, TEC, and TXK kinases by compound A2 was measured using one of the assays described in Examples 2A and 3A."}, "BTK": {"molecular_target": "BTK (Homo sapiens, UniProt Q06187)", "sequence (Q06187 whole entry)": "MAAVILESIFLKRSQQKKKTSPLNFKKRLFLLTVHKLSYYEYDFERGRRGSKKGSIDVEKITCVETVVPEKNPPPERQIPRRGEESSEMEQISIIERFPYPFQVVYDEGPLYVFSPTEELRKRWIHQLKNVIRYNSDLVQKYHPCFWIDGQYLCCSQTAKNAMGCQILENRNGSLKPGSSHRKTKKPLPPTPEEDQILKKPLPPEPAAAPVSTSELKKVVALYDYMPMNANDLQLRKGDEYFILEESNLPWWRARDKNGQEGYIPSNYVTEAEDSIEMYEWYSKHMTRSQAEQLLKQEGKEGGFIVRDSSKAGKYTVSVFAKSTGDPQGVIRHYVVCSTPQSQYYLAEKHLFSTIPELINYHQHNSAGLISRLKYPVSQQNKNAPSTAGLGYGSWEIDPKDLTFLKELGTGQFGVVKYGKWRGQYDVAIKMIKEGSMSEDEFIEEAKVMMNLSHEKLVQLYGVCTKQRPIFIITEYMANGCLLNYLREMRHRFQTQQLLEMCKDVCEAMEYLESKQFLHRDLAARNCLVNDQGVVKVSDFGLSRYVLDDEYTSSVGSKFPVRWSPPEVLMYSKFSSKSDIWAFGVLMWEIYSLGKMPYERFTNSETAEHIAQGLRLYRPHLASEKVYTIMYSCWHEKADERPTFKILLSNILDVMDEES", "experiment": "Inhibition of BTK kinase", "assay_type": "biochemical", "settings": "1% DMSO", "text": "as §5, §6, §7, §8"}, "TXK": {"molecular_target": "T2, TXK (Homo sapiens, UniProt P42681)", "T2 sequence (P42681 1-527)": "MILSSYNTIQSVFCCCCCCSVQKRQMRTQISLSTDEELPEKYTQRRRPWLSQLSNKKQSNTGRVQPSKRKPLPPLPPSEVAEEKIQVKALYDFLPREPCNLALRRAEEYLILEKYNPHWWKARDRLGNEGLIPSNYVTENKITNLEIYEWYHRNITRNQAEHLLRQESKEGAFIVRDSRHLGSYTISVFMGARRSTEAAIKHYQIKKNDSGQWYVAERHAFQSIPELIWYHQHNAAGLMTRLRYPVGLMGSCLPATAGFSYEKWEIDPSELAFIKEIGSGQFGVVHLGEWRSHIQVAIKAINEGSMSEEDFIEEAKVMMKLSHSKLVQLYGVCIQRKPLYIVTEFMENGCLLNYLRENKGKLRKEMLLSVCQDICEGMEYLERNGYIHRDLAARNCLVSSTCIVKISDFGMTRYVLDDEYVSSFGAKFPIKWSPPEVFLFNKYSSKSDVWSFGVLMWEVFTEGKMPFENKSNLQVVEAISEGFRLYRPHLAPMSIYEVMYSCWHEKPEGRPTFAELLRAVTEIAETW", "experiment": "Inhibition of TXK kinase", "assay_type": "biochemical", "settings": "1% DMSO", "text": "as §5, §6, §7, §8"}}, "data": [{"smiles": "C=CC(=O)N1CCCC[C@@H](n2c(NC(=O)c3ccnc(C)c3)nc3cccc(OC4CCN(C(C)=O)CC4)c32)C1", "note": "[Compound A2, (R)-N-(7-((1-acetylpiperidin-4-yl)oxy)-1-(1-acryloylazepan-3-yl)-1H-benzo[d]imidazol-2-yl)-2-methylisonicotinamide]", "values": [{"measurement": "Ratio (Wild-type ERBB1/Mutant ERBB1) A431/HCC827", "setting": "[1]; GI50 ratio A431/HCC827", "value": "A′ (A′ represents a ratio of greater than 10)"}, {"measurement": "Ratio (Wild-type ERBB1/Mutant ERBB1) HEKn/HCC827", "setting": "[1]; GI50 ratio HEKn/HCC827", "value": "A′ (A′ represents a ratio of greater than 10)"}, {"measurement": "GI50", "setting": "[1]; Homo sapiens, HCC827 cells, 72 hrs", "value": "< 0.5", "unit": "µM"}, {"measurement": "GI50", "setting": "[2]", "value": "> 5", "unit": "µM"}, {"measurement": "IC50", "setting": "BMX", "value": "≤ 0.01", "unit": "µM"}, {"measurement": "Inhibition", "setting": "BMX", "value": "A (A represents a value no greater than 10 nM or no less than 90% inhibition)"}, {"measurement": "IC50", "setting": "BTK", "value": "≤ 0.01", "unit": "µM"}, {"measurement": "Inhibition", "setting": "BTK", "value": "A (A represents a value no greater than 10 nM or no less than 90% inhibition)"}, {"measurement": "IC50", "setting": "TXK", "value": "≤ 0.01", "unit": "µM"}, {"measurement": "Inhibition", "setting": "TXK", "value": "A (A represents a value no greater than 10 nM or no less than 90% inhibition)"}]}]}
